Data from patent publication EP2969029B1, “USE OF COSMETICALLY OR DERMATOLOGICALLY SAFE SUBSTITUTED MICHAEL ACCEPTORS FOR THE PREVENTION, REDUCTION OR PROPHYLAXIS OF THE TYROSINASE ACTIVITY OF THE HUMAN SKIN AND/OR THE LIGHTENING OF THE HUMAN SKIN” (Beiersdorf AG, priority 2013, dated 2014).

Biological target: T1, humane Tyrosinase (Homo sapiens, UniProt P14679)
T1 sequence (P14679 19-529): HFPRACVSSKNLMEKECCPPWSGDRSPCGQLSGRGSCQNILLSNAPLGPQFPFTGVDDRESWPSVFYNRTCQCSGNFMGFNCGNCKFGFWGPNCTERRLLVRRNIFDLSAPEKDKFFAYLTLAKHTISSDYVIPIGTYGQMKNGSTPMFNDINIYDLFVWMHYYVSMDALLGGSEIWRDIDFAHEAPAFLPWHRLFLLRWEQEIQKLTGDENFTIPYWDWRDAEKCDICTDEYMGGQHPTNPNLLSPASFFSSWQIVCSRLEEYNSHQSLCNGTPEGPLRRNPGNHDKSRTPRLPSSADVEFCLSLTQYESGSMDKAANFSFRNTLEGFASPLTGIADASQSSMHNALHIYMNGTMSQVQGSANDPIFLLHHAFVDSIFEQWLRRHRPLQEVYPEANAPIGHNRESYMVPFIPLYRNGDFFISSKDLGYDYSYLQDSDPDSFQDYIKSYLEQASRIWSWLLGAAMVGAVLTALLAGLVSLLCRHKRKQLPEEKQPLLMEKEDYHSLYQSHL
Experiment: Enzyme test: conversion of L-DOPA to L-dopaquinone by human tyrosinase, MBTH detection, absorption at 490 nm
Assay type: biochemical
Details: Inhibition der Tyrosinaseaktivität, substrate L-DOPA

Row | SMILES | EC50 [µM]
1 | O=C(O)/C=C/c1ccco1 [(E)-3-(furan-2-yl)acrylsäure] | 166
2 | O=C(O)/C=C/c1ccncc1 [(E)-3-(pyridin-4-yl) acrylsäure] | 697
3 | O=C(/C=C/c1ccc(O)cc1)NCCc1c[nH]c2ccc(O)cc12 [(E)-N-(2-(5-hydroxy-1H-indol-3-yl)ethyl)-3-(4-hydroxyphenyl)acrylamid] | 515
4 | CC1CCC(=CC(=O)O)CC1 (stereo not shown) [2-(4-Methyl-1-cyclohexyliden)essigsäure] | 6540
5 | O=CC=Cc1ccccc1 [Zinnamaldehyd] | 211
6 | O=C(O)/C=C/c1ccc(O)c(O)c1 [(E)-3-(3,4-dihydroxyphenyl)acrylsäure] | 1370
7 | COc1ccc(C(=O)/C=C(\O)c2ccc(C(C)(C)C)cc2)cc1 [(Z)-3-(4-(tert-butyl)phenyl)-3-hydroxy-1-(4-methoxyphenyl)prop-2-en-1-on] | 1550
8 | CCCc1c[nH]c(=S)[nH]c1=O [5-Propyl-2-thioxo-2,3-dihydropyrimidin-4(1H)-on] | 494
9 | COc1ccc(C(=O)O)c(O)c1 [2-Hydroxy-4-methoxy Benzoesäure] | 2660
10 | O=C(OCc1ccccc1)c1ccccc1 [Benzyl benzoat] | 998
11 | O=C(O)/C=C/c1cccnc1 [(E)-3-(pyridin-3-yl)acrylsäure] | 634
12 | COc1cc(/C=C/C(=O)O)ccc1O [trans-Ferulasäure] | 2210
13 | O=C(O)/C=C/c1cccs1 [(E)-3-(thiophen-2-yl)acrylsäure] | 32
14 | O=C(OCc1ccccc1)c1ccccc1O [Benzyl 2-hydroxybenzoat] | 378
15 | O=C(O)/C=C/c1c[nH]c2ccccc12 [(E)-3-(1H-indol-3-yl)acrylsäure] | 833
16 | C=CCOC(=O)C=Cc1ccccc1 [Allyl cinnamat] | 2340
17 | O=C(O)c1ccccc1 [Natrium Benzoat] | 1440

More lines, now with the values ahead:

Row | EC50 [µM] | SMILES
18 | 260 | O=C(C=Cc1ccccc1)OCc1ccccc1 [Benzyl cinnamat]
19 | 358 | COc1ccc(C=CC(=O)OCCC(C)C)cc1 [Isoamyl p-Methoxycinnamat]
20 | 2450 | COC(=O)c1cc(O)ccc1O [Methyl 2,5-Dihydroxybenzoat]
21 | 4230 | CCCCCCOC(=O)c1ccccc1O [Hexyl 2-hydroxybenzoat]
22 | 2590 | CCOC(=O)C=Cc1ccccc1 [Ethyl cinnamat]
23 | 547 | O=C(OC1CCCCC1)c1ccccc1O [Cyclohexyl 2-hydroxybenzoat]
24 | 2610 | C=COC(=O)C=Cc1ccccc1 [Vinyl cinnamat]
25 | 1530 | C/C=C/C=C/C(=O)O [Kaliumsorbat]
